# Experiments:
# [1] = test system: differentiated 3T3-L1 cells; assay: Stable isotope (13C18-oleic acid) labeling of triglyceride synthesis with LC-MS detection in differentiated 3T3-L1 cells; type: cell-based, mouse; details: differentiated 3T3-L1 cell line
# Description: The 3T3-L1 mouse preadipocyte cells were maintained in Dulbecco's Modified Eagles Medium (DMEM) with 10% fetal bovine serum (FBS). Cells were seeded in 96-well plates. Two days post confluency, the medium was changed to induction medium with IBMX, insulin, and dexamethasone (Adipolysis kit, Cayman Chemical Company). Three days after induction, the medium was changed to insulin medium (Adipolysis kit, Cayman Chemical Company). Five days after induction, the medium was replaced with fresh insulin medium for 2 days. Human hepatoma cell line HUH7 was maintained in DMEM with 10% FBS, 4.5 g/L D-glucose. Rat hepatoma cell line FU5AH was maintained in Minimum Essential Medium Eagle (MEM) with 5% FBS. […]
# The HUH7 cells or the differentiated 3T3-L1 cells were incubated with DMEM with 10% charcoal-stripped FBS (Gibco) in 5% CO2 at 37° C. for overnight. […] After incubating at room temperature for 10 minutes, the extraction was transferred to a glass vial and detected for labeled lipid molecules using the LC-MS system. […]
# (§1) For evaluating compounds which modulate activity of DGAT1 or DGAT2, HUH7 or 3T3-L1 cells were preincubated with about 0, 0.03, 0.1, 0.3, 1, 3, or 10 μM Compounds 1 or 2 for about 10 minutes at 37° C. in 100 μl serum free medium with 0.05% DMSO. […] After incubation at 37° C. for about 90 minutes, cells were extracted and detected as described in Example 2.
# HUH7 cells = assay: Stable isotope (13C18-oleic acid) labeling of triglyceride synthesis with LC-MS detection in HUH7 cells; type: cell-based, human; details: for levels of 13C18-triolein relative to those of the control: 10 μM compound, about 90 minutes with 13C18-oleic acid, % of control (FIG. 3)
# Description: (§2) The 3T3-L1 mouse preadipocyte cells were maintained in Dulbecco's Modified Eagles Medium (DMEM) with 10% fetal bovine serum (FBS). Cells were seeded in 96-well plates. Two days post confluency, the medium was changed to induction medium with IBMX, insulin, and dexamethasone (Adipolysis kit, Cayman Chemical Company). Three days after induction, the medium was changed to insulin medium (Adipolysis kit, Cayman Chemical Company). Five days after induction, the medium was replaced with fresh insulin medium for 2 days. Human hepatoma cell line HUH7 was maintained in DMEM with 10% FBS, 4.5 g/L D-glucose. Rat hepatoma cell line FU5AH was maintained in Minimum Essential Medium Eagle (MEM) with 5% FBS. The hepatoma cells were plated in 96 well plates and used at 80% confluence. Human breast cancer cell line MCF7 cells were maintained in DMEM with 10% FBS, 4.5 g/L D-glucose. Human monocytic leukemia cell line THP-1 was maintained in RPMI medium with 10% FBS and used at 5×10^5 cells/ml.
# The HUH7 cells or the differentiated 3T3-L1 cells were incubated with DMEM with 10% charcoal-stripped FBS (Gibco) in 5% CO2 at 37° C. for overnight. The FU5AH cells were incubated with MEM with 5% charcoal-stripped FBS in 5% CO2 at 37° C. for overnight. About 100 μl of 300 μM ^13C18-oleic acid (SIGMA) precomplexed with 0.5% fatty acid free BSA (SIGMA) were added to the cell suspension in 5% CO2 at 37° C. for 0, 30, 60, 120 and 180 minutes. Then the cells were washed once with phosphate buffered saline and extracted with 100 μl of isopropyl alcohol. After incubating at room temperature for 10 minutes, the extraction was transferred to a glass vial and detected for labeled lipid molecules using the LC-MS system.
# The LC-MS detection was conducted with Agilent 1100 Liquid Chromatographic system (Agilent Technologies, Palo Alto, Calif.) interfaced with a Micromass triple-quadrupole Quattro Micro mass spectrophotometer (Waters, Milford, Mass.) through a Z-spray electrospray ion source (ESI). Separation of the metabolites was performed on an Eclipse XDB-C8 column (2.1×50 mm, particle size=3.5 μm). Mobile Phase A, 50 mM ammonium formate in isopropanol-water (3:7), and mobile phase B, 10 mM ammonium formate in isopropanol-water (9:1) were used for a gradient elution as following: 20-100% Mobile Phase B for 1 min, hold 100% Mobile Phase B for 4 min, return to 20% Mobile Phase B for 0.1 min, then post run time of 4.5 min. The flow rate was 0.5 ml/min. […]
# as §1
# MCF7 cells = assay: Stable isotope (13C18-oleic acid) labeling of triglyceride synthesis with LC-MS detection in MCF7 cells; type: cell-based, human; details: compound 0.1-10 μM (concentration of the result not stated), about 3 hours with 13C18-oleic acid, % of control (FIG. 6)
# Description: as §2
# The LC-MS detection was conducted with Agilent 1100 Liquid Chromatographic system (Agilent Technologies, Palo Alto, Calif.) interfaced with a Micromass triple-quadrupole Quattro Micro mass spectrophotometer (Waters, Milford, Mass.) through a Z-spray electrospray ion source (ESI). […]
# Next, the effects of Compound 2 in MCF7 cells were evaluated. […]
Compound,"levels of 13C18-triolein relative to those of the control ([1]; about 10 μM compound, about 90 minutes with 13C18-oleic acid, % of control (FIG. 4))",levels of the newly synthesized 13C18-triolein in the presence of compound ([1]; result in words),levels of 13C18-triolein relative to those of the control (HUH7 cells; HUH7 cell line),"levels of the newly synthesized 13C18-triolein in the presence of compound (HUH7 cells; HUH7 cell line, result in words)","13C18-oleoyl-diglyceride level (HUH7 cells; HUH7 cells incubated with compound (FIG. 5), result in words)",levels of 13C18-triolein relative to those of the control (MCF7 cells)
"COc1ccc(CC(=O)Nc2ccc(N3CCN(C(=O)Nc4c(Cl)cc(CN5CCCC5)cc4Cl)CC3)cc2)cc1 [Compound 1, N-[2,6-Dichloro-4-(pyrrolidin-1-ylmethyl)phenyl]-4-(4-{[(4-methoxyphenyl)acetyl]amino}phenyl)piperazine-1-carboxamide]",about 33%,reduced levels,about 30%,reduced levels,transient increase,
"COC(=O)c1[nH]c(=S)n(C(c2ccc(Cl)c(Cl)c2)C2CCCCC2)c1C(=O)OC (stereo not shown) [Compound 2, dimethyl 1-[cyclohexyl(3,4-dichlorophenyl)methyl]-2-thioxo-2,3-dihydro-1H-imidazole-4,5-dicarboxylate]",,,about 75%,,,about 80%

# From patent publication US9012159B2, “Cell based screening assays for the triglyceride synthesis pathway” (Janssen Research & Development, LLC, priority 2009, dated 2015)
